From patent US7713960B2, “Inhibition of the Raf/Mek/P-Erk pathway for treating cancer” (University of South Florida, priority 2005, dated 2010)
Counter-ions that a name gives are not always drawn.

Legend:
Type in all cases: cell-based, human
c-Raf-1 = experiment: In vivo kinase assay, intact MDA-MB-231 cells treated, c-Raf-1; conditions: 10 μM
Procedure: In Vitro Kinase Assays—MDA-MB-231 cells (2×10^6) were lysed for 30 minutes at 4° C. in RIPA-150 buffer (10 mM Tris pH 7.5, 150 mM NaCl, 10% glycerol, 5 mM EDTA, 1% Triton X-100, 0.1% SDS, 100 μM sodium orthovanadate, 1 μM aprotinin, 10 μM leupeptin, 10 μM antipain). Cell debris was pelleted at 13000 rpm for 15 minutes at 4° C. and the lysate was rocked overnight with 10 μg of either c-Raf or MEK antibodies (Santa Cruz Biotechnologies, Santa Cruz, Calif.). 25 μl of protein A/G PLUS agarose (Santa Cruz Biotechnology) was then added and rocked for 4 hours at 4° C. Samples were spun at 2000 rpm for 5 minutes to collect the agarose beads, which were then washed four times with lysis buffer. On the final wash each pellet was divided into 5. […]

P-c-Raf-1 = P-c-Raf-1 levels (Western blotting), MDA-MB-231
Procedure: (§1) Western Blotting—Treated cell samples were lysed in 30 mM HEPES, 10 mM NaCl, 5 mM MgCl2, 25 mM NaF, 1 mM EGTA, 1% Triton-X-100, 10% Glycerol, 2 mM Sodium orthovanidate, 10 μg/mL aprotinin, 10 μg/mL soybean trypsin inhibitor, 25 μg/mL leupeptin, 2 mM phenylmethylsulfonylfluoride (PMSF), 6.4 mg/mL p-nitrophenylphosphate for 30 minutes at 4° C., and proteins run on SDS-PAGE gels then transferred to nitrocellulose membranes. Membranes were blocked in either 5% milk in PBS, pH 7.4, containing 0.1% Tween-20 (PBS-T) or 1% BSA in TBS, pH 7.5, containing 0.1% Tween-20 (TBS-T). Phospho-STAT3 and phospho-AKT antibodies were diluted in 1% BSA in TBS-T while phospho-c-Raf, phospho-Mek, and phospho-p44/p42 MAPK antibodies (Cell Signaling) were diluted in 5% milk in PBS-T for either 1 hour at room temperature or overnight at 4° C. HRP-conjugated secondary antibodies (Jackson ImmunoResearch, West Grove, Pa.) were diluted in 5% milk in PBS-T or TBS-T at a 1:1000 dilution for one hour at room temperature. Western blots results were visualized using enhanced chemiluminescence. Stripping of the membranes for reblotting was done using stripping buffer (62.5 mM Tris pH 7.6, 2% SDS, 0.7% 2-mercaptoethanol) at 50° C. for 30 minutes.

HCT-116 cells [1] = experiment: Anchorage-dependent growth (MTT assay), HCT-116
Procedure: (§2) MTT Assay—2000 cells per well were plated into 96 well tissue culture plates, and the cells were allowed to attach overnight at 37° C. with 10% CO2. Cells were then treated with increasing concentrations of ARA-211, or vehicle (DMSO) and incubated for four days. At that time treatment medium was removed and replaced with 100 μl of lmg/ml MTT (Sigma-Aldrich, St. Louis, Mo.) in media and incubated at 37° C., 10% CO2 for 3 hours. After 3 hours the MTT media was removed and replaced with 100 μl/well of DMSO, rocked at room temperature for 5 minutes, then absorbance read at 540 nm on a micro-plate reader.

HCT-116 cells [2] = experiment: Anchorage-independent growth (soft agar assay), HCT-116
Procedure: Soft Agar Assay—Anchorage independent growth assays were performed as previously described (Lerner et al., 1997). Briefly, agar was diluted to 0.3% in propagation media containing 20,000 cells and either vehicle or ARA-211 and 1 ml of cell/agar mixture plated on top of 2 ml of a 0.6% layer of agar in medium alone. Cells were grown for three to four weeks at 37° C., 10% Co2 and were fed weekly with 100 μl per well of media/treatment. Quantification of colonies was done using a GS-700 scanning densitometer.

P-Erk 1/2 [3] = experiment: P-Erk 1/2 levels, MCF-7; conditions: MCF-7 (breast)
Procedure: as §1

P-Erk 1/2 [4] = experiment: P-Erk 1/2 levels (Western blotting), SF-539
Procedure: as §1

SF-539 cells [5] = experiment: Anchorage-dependent growth (MTT assay), SF-539
Procedure: as §2

SNB-19 cells = experiment: Apoptosis assay (Cell Death Detection ELISA), SNB-19; conditions: 48 hours, two single values
Procedure: (§3) Apoptosis Assay—Apoptosis was analyzed using the Cell Death Detection ELISA (Roche, Indianapolis, Ind.) measuring cytoplasmic histone-associated mono- and oligonucleosome DNA fragments. Procedures were carried out according to the manufacturers protocol. Briefly, 1×10^5 cells were plated in 60 mm dishes and treated with various doses of ARA-211 or vehicle for 48 hours. Cells were lysed with the provided lysis buffer and lysate was incubated on the ELISA plate for 1 hour to capture the histone associated DNA indicative of apoptotic cells. Anti-DNA peroxidase conjugated antibody was added to detect the cleaved DNA and the microplate was washed and developed with ABTS substrate which was quantitated by microplate reader at 405 nm.

SF-539 cells [6] = experiment: Apoptosis assay (Cell Death Detection ELISA), SF-539; conditions: 48 hours
Procedure: as §3

SMILES: CC(C)(C)NCC(O)c1ccc(O)c(CO)n1 (stereo not drawn) [ARA-211, 2-hydroxymethyl-3-hydroxy-6-(1-hydroxy-2-tert-butylaminoethyl) pyridine, dihydrochloride]
- c-Raf-1 kinase activity, intact cells first treated (c-Raf-1): blocked
- P-c-Raf-1 levels (P-c-Raf-1): not
- Anchorage Dependent Growth (% Inhibition) (HCT-116 cells [1]): 6.5 ± 4%
- Anchorage Independent Growth (% Inhibition) (HCT-116 cells [2]): 7.3 ± 3.1%
- inhibition of P-Erk 1/2 levels (P-Erk 1/2 [3]): did not
- P-Erk ½ (% Inhibition) (P-Erk 1/2 [4]): 100%
- Anchorage Dependent Growth (% Inhibition) (SF-539 cells [5]): 55 ± 6.9%
- Apoptosis (% Induction) (SNB-19 cells): 0, 0%
- Apoptosis (% Induction) (SF-539 cells [6]): 9 ± 1.7%
